Literature values in US6426407B1, “Residues for binding third strands to complementary nucleic acid duplexes of any base pair sequence” (Codon Pharm., priority 1995, dated 2002).

Test system: center strand purine G; note: key: a '+' means the bases are complementary or correspondent; a '−' means they are not complementary or not correspondent
For `Nc1ncnc2nc[nH]c12` [A, adenine], the “third strand base complementary to center strand purine” value (“third strand base complementary” for short) is given as “−”.
For `Nc1cc[nH]c(=O)n1` [C, cytosine], the “third strand base complementary” value is given as “+”.
In the case of `Nc1nc2nc[nH]c2c(=O)[nH]1` [G, guanine], the “third strand base complementary” value is given as “+”.
For `OC[C@H]1O[C@@H](n2cnc3c(O)ncnc32)[C@H](O)[C@@H]1O` [I, inosine], the “third strand base complementary” value is given as “+”.

Test system: homopolymer GC duplexes, homopolymer AT duplexes, and mixed base-pair duplexes with alternating AG in the center strand
In the case of `OC[C@H]1O[C@@H](n2cnc3c(O)ncnc32)[C@H](O)[C@@H]1O` [I, inosine], the triplex formation is given as “forms triplexes”.

Test system: center strand purine A; note: key: a '+' means the bases are complementary or correspondent; a '−' means they are not complementary or not correspondent
In the case of `Nc1ncnc2nc[nH]c12` [A, adenine], the “third strand base complementary” value is listed as “+”.
For `Nc1cc[nH]c(=O)n1` [C, cytosine], the “third strand base complementary” value is listed as “−”.
For `Nc1nc2nc[nH]c2c(=O)[nH]1` [G, guanine], the “third strand base complementary” value is given as “−”.
For `OC[C@H]1O[C@@H](n2cnc3c(O)ncnc32)[C@H](O)[C@@H]1O` [I, inosine], the “third strand base complementary” value is given as “+”.
